Experimental data taken from article PMC10382351, “In vivo evaluation of a novel ^18F-labeled PET radioligand for translocator protein 18 kDa (TSPO) in monkey brain” (European Journal of Nuclear Medicine and Molecular Imaging, 2023).

Key:
[1] = Parent radioactivity and radiometabolite analysis in arterial plasma (HPLC); format: in vivo, rhesus monkey; conditions: for Peak parent concentration in arterial plasma: n = 3
Method: (§1) Arterial blood sampling was performed in all scans to determine plasma parent concentration of the radioligand. Seventeen blood samples were drawn from an implanted port in the femoral artery of the monkeys during the 180-min PET scans at 15-s intervals for the first two minutes, followed by samples at 3, 5, 10, 30, 60, 90, 120, 150, and 180 min (volumes varied from 1.0 to 5.0 mL). Radioactivity in plasma was quantified and corrected for radiometabolites using high-performance liquid chromatography (HPLC). The separation was performed on an X-Terra C18 column (10 µm, 7.8 × 300 mm) with an isocratic mobile phase composed of methanol: water: triethylamine (77.5:22.5:0.1 by vol.) at a flow rate of 5 mL/min. The plasma free fraction (fP) was measured by ultrafiltration, as previously described. A standard fP was measured in a frozen aliquot of pooled plasma in parallel with the experimental blood sample, and as internal standard it was then used to normalize the measured fP of the blood samples.

[2] = Plasma free fraction (fP) by ultrafiltration; format: in vitro ADME, rhesus monkey; conditions: for Plasma free fraction fP / fraction unbound: n = 3; for fraction unbound: male, rhesus monkey, plasma
Method: as §1

TSPO = molecular target: T1, TSPO (Mus musculus, UniProt P50637); test: PET study in mice at baseline and after PK11195; format: in vivo
T1 construct: from tissue; host or cells: living mice, whole-brain ROI, also lung (in vivo PET)
Method: Imaging experiments were performed on a microPET Focus 120 camera (Siemens Medical Solution; Knoxville, TN). Mice were anesthetized with 1.5% isoflurane in oxygen at a flow rate of 1 L/min. [^18F]SF51 (150 µL; 2.9 ± 0.6 MBq) was injected intravenously through the tail vein of each mouse. Baseline scans were obtained in 12 mice, and another eight mice were imaged after pre-administration of 5 mg/kg PK11195. Scans were acquired for 120 min. Data were histogrammed into 24 time frames (6 × 20, 5 × 60, 4 × 120, 3 × 300, 3 × 600 and 3 × 1200 s) and reconstructed using Fourier rebinning plus a two-dimensional filtered back projection. No scatter or attenuation corrections were applied. PET images were analyzed using PMOD with a single ROI of the whole brain.

[3] = representative radiochromatogram, baseline study, at 30 minutes
[4] = mouse, after blockade with PK11195

Average percentage of parent in plasma ([1]; at 120 min, roughly the same until 180 min, HPLC): 25%
Peak parent concentration in arterial plasma ([1]; baseline): 4.1 ± 0.4 SUV
Peak parent concentration in arterial plasma ([1]; blocked with PK11195 5 mg/kg): 7.5 ± 1.7 SUV
Number of radiometabolites in plasma (more hydrophilic than the parent) ([1]; monkey arterial plasma, HPLC): At least five
Parent in arterial plasma [1, 3]: 36%
Total radiometabolites in arterial plasma [1, 3]: 64%
Plasma free fraction fP ([2]; baseline scans): 6 ± 1%
Plasma free fraction fP ([2]; blocked scans (PK11195)): 19 ± 4%
fraction unbound ([2]; baseline scans): 0.064 ± 0.007
fraction unbound ([2]; blocked scans (PK11195)): 0.188 ± 0.036
fPblock ([2]; one monkey, after PBR28 pre-blockade (5 mg/kg)): 19.3%
fPbase ([2]; one monkey, baseline scan of the PBR28 experiment): 5.7%
fP of the internal standard (frozen aliquot of pooled plasma) ([2]; six PET scans): 2.4 to 3.8%
Blockade of radioligand in mouse brain (TSPO; after i.v. 5 mg/kg PK11195): about 80%
Radioactivity in bone (TSPO; mouse): No significant increase in radioactivity
Uptake in lung (blockable) (TSPO; mouse): > 2 SUV
Peak brain uptake (TSPO; [4]): ~ 2.5 SUV
Time of peak brain uptake (TSPO; [4]): three
Peak brain uptake (TSPO; mouse, baseline): ~ 0.8 SUV
Time of peak brain uptake (TSPO; mouse, baseline): around 15 min
Brain activity after blockade relative to baseline (TSPO; mouse, last 80 min of scanning, PK11195): 25 % of that at baseline
Structure (SMILES): CC[C@@H](C)N(C)C(=O)c1nc(-c2cccc([18F])c2)c2ccccc2n1 [[^18F]SF51]
